Data from patent US12274693B2, “Anti-proprotein convertase subtilisin kexin type 9 (anti-PCSK9) nano-formulation of compounds and methods of using the same” (SHIFA BIOMEDICAL CORPORATION, priority 2018, dated 2025).
“And” between values parts separate entries of the source, which are not always exact repeats. Identical values can stand only once. Like-named read-outs stand apart in the source and are kept apart here.

What was measured:
[1] = biological target: T1, PCSK9/LDLR interaction (His-tagged PCSK9, recombinant LDLR-AB domain) (Homo sapiens, UniProt Q8NBP7); experiment: In vitro ELISA binding assay (Circulex) for inhibition of the PCSK9/LDLR interaction; settings: for IC50 for inhibition of the PCSK9/LDLR interaction, range in words: FIG. 4A
T1 construct: purchased Circulex
Method: FIG. 4A provides a graph of the effect of SBC-115,418, SBC-115,433, SBC-115,448, and SBC-115,462 on the PCSK9/LDLR interaction. An in vitro ELISA assay kit was utilized (Circulex). For screening inhibitors of the PCSK9/LDLR interaction, different concentrations (0.01 nM-100 μM) of selected compounds were incubated with His-tagged PCSK9 and then added to wells that were pre-coated with recombinant LDLR-AB domain. After incubation, the plate was washed and the amount of recombinant His-tagged PCSK9 was measured using the biotinylated anti-His-tag and horseradish peroxidase conjugated Streptavidin and quantitated using a BioTek Synergy™ 2 plate reader. The effect of each compound on the PCSK9 binding to the recombinant LDLR-AB domain was calculated.
FIG. 4B provides a graph of the effect of SBC-115,418 on the PCSK9/LDLR interaction under increased solubilization conditions (10% DMSO) (418s). An in vitro ELISA assay (Circulex) was utilized. Different concentrations ([…]-100 μM) of SBC-115,418 in DMSO were incubated with His-tagged PCSK9 and then added to wells that were pre-coated with recombinant LDLR-AB domain as described in FIG. 4A.
(§1) Testing of SBC-115,418 and analogs was performed in a binding assay to determine their ability to inhibit the PCSK9/LDLR interaction. SBC-115,418 inhibited the PCSK9/LDLR interaction with an IC50 in the sub-micro-molar range. Experimental details are provided hereinabove and in WO 2017/222953. […] Given the lipophilicity of lead compound SBC-115,418, a solubility study was undertaken to look at its effects on binding (FIG. 4B). An in vitro ELISA binding assay was performed at different concentrations (0.01 μM-100 μM) of SBC-115,418 under different solubilization conditions.

PCSK9 = experiment: Test for secreted PCSK9 (synthesis, processing and secretion); type: cell-based; settings: in the cells or into the media
Description: Experimental details are provided hereinabove and in WO 2017/222953.

LDLR = experiment: Cell-based assay for LDLR upregulation; settings: compared to cells treated with same volume of DMSO
HepG2 cells = experiment: Uptake of fluorescent Dil-LDL in HepG2 cells; type: cell-based; settings: 10 μM
Description: FIG. 5 provides a graph of the effect of SBC-115,418, SBC-115,433, SBC-115,448, and SBC-115,462 on the uptake of fluorescent Dil-LDL in HepG2 Cells. The compounds were validated for their ability to increase uptake of Fluorescent Dil-LDL in HepG2 cells.

[2] = Lipophilicity and solubility of the compounds; type: physicochemical
Method: [formula] The size distribution of the nanoparticles in aqueous dispersions was determined using a Malvern zeta sizer (Malvern Instrumentation Co, Westborough, MA). 50 mg of the lyophilized nanoparticles were re-suspended in 2 mL of water. This nanoparticles solution was placed into a 3 mL, 4-sided, clear plastic cuvette, and measured directly. Shown are the HPLC chromatograms of SBC-115,418 used to construct the standard curve at different concentrations. Calibrator series of SBC-115,418 were prepared in DMSO by a 2-fold series dilution including 3.9, 7.8, 15.6, 31.5, 62.5, 125, and 250 μg/mL (left).
as §1

[3] = ELISA, read-out: in vitro inhibition of the PCSK9/LDLR interaction (IC50)

T1 sequence (Q8NBP7 153-692): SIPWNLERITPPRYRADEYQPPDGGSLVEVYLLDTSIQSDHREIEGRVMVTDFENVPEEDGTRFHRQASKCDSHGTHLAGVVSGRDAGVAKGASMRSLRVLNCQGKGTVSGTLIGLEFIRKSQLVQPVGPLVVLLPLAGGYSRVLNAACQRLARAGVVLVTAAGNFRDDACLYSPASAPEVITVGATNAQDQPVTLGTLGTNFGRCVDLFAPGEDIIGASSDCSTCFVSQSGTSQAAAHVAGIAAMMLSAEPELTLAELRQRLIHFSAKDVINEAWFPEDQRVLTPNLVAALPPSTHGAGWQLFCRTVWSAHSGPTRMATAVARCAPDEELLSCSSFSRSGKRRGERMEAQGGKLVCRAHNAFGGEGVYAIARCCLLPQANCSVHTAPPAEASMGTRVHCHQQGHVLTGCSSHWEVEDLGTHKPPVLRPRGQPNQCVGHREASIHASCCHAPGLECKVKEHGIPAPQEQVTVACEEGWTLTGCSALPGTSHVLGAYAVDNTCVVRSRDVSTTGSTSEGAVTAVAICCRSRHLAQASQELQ
T1 sequence (Q8NBP7 31-152 partner limits assumed): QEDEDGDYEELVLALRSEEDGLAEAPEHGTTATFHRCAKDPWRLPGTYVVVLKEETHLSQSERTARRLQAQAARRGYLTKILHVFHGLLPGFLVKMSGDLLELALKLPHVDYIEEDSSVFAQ

Compound: O=C(Nc1ccc(C(=O)Nc2ccc(-c3ncco3)cc2)c(F)c1)c1cc2ccccc2o1 [SBC-115,448]
- IC50 for inhibition of the PCSK9/LDLR interaction, range in words ([1]; ELISA): low micro-molar
- IC50 [1, 3]: < 5 µM
- effect on PCSK9 synthesis, processing and secretion (PCSK9): no significant effect
- level of LDLR versus DMSO control (LDLR): significant upregulation
- Fluorescent Dil-LDL uptake (HepG2 cells): increase

Compound: COc1ccc2oc(C(=O)Nc3ccc(C(=O)Nc4ccc(-c5nc6ccccc6[nH]5)cc4)cc3)c(C)c2c1 [SBC-115,477]
- IC50 for inhibition of the PCSK9/LDLR interaction, range in words ([1]; ELISA): sub-micro-molar
- IC50 [1, 3]: < 5 µM and 0.19 µM
- effect on PCSK9 synthesis, processing and secretion (PCSK9): no significant effect
- level of LDLR versus DMSO control (LDLR): upregulation
- logP [2]: 4.5
- solubility relative to SBC-115,418 [2]: increased solubility

Compound: COc1ccc2oc(C(=O)Nc3ccc(C(=O)Nc4ccc(-c5nc6ccccc6o5)cc4)cc3)c(C)c2c1 [SBC-115,418]
- IC50 for inhibition of the PCSK9/LDLR interaction, range in words ([1]; ELISA): sub-micro-molar
- IC50 [1, 3]: < 5 µM
- IC50 ([1]; increased solubilization conditions (10% DMSO), FIG. 4B, read-out: IC50 of in vitro binding under improved solubility conditions): 0.05 µM
- effect on PCSK9 synthesis, processing and secretion (PCSK9): no significant effect
- level of LDLR versus DMSO control (LDLR): significant upregulation
- Fluorescent Dil-LDL uptake (HepG2 cells): significant increase
- solubility ([2]; 80% acetonitrile, organic solvent or mixture): < 100 µg/mL

Compound: O=C(Nc1ccc(-c2ncco2)cc1)c1ccc(NC(=O)c2cc3ccccc3o2)cc1 [SBC-115,433]
- IC50 for inhibition of the PCSK9/LDLR interaction, range in words ([1]; ELISA): sub-micro-molar
- IC50 [1, 3]: < 5 µM
- effect on PCSK9 synthesis, processing and secretion (PCSK9): no significant effect
- level of LDLR versus DMSO control (LDLR): significant upregulation
- Fluorescent Dil-LDL uptake (HepG2 cells): increase

Compound: COc1ccc2oc(C(=O)Nc3ccc(C(=O)Nc4ccc(-c5ncco5)cc4)cc3)c(C)c2c1 [SBC-115,462]
- IC50 for inhibition of the PCSK9/LDLR interaction, range in words ([1]; ELISA): low micro-molar
- IC50 [1, 3]: < 5 µM
- effect on PCSK9 synthesis, processing and secretion (PCSK9): no significant effect
- level of LDLR versus DMSO control (LDLR): significant upregulation
- Fluorescent Dil-LDL uptake (HepG2 cells): significant increase
